# Reference: patent publication US10076533B2, “Acyclic nucleoside phosphonate diesters” (The Regents of the University of California, priority 2013, dated 2018)
# Like-named read-outs stand apart in the source and are kept apart here.
# Tests used:
# [1] = Cytotoxicity in HFF cells in parallel to cytomegalovirus assay; settings: human, […]
# [2] = Cytotoxicity in MT-2 cells, flow cytometry cell counts and viability; type: cell-based, human; settings: human; MT-2 cells, 72 hrs
# Description: MT-2 cells were incubated with drug for 72 hrs and harvested. Flow count beads (Beckman Coulter, Miami, Fla.) were added to the cell suspension followed by propidium iodide staining and analysis using flow cytometer and the 50% cytotoxic concentration (CC50) was calculated from the cell counts and viability.
# Hepatitis B virus = assay: HBV replication in 2.2.15 cells, HBV DNA blot hybridization; settings: for EC50: Hepatitis B virus, 168 h; for Selectivity Index: hepatitis B virus, 2.2.15 cells
# [3] = Toxicity in primary human keratinocyte raft cultures by histology
# [4] = Cytotoxicity in HFF cells in parallel to HSV-2 assay; settings: human, […]
# [5] = Effect of oral compounds on body weight in Balb-c mice; type: in vivo
# Description: Compounds were administered at the indicated doses by oral gavage daily for 5 days. Weights measured before and on day 6 after 5 doses.
# [6] = Cytotoxicity in HFF cells in parallel to HSV-1 assay; settings: human, […]
# [7] = system: AD169 strain of human cytomegalovirus; assay: Antiviral effect in HFF cells infected with human cytomegalovirus (AD169); settings: for EC50: Human betaherpesvirus 5, AD169, HFF, 336 h; for Selectivity Index: human cytomegalovirus (AD169), HFF cells
# [8] = Toxicity in HEK 293 cells by trypan blue exclusion (HPV-16 example); type: cell-based; settings: human
# Description: (§1) An origin-containing plasmid was co-transfected with HPV-16 E1 and E2 protein expression vectors into HEK 293 cells. At 4 hr post-transfection, cells were treated with compound dilutions and the cells were incubated for 48 hr. Replication of the virus origin was detected with DpnI and exonuclease III to remove unreplicated input bacterial plasmid DNA. Remaining replicated DNA was quantified by qPCR. Toxicity was determined by trypan blue exclusion.
# [9] = human
# [10] = Viability of PBMC by XTT reduction; settings: human, PHA-stimulated human PBMCs
# HPV-16 = HPV-16 origin replication in HEK 293 cells, qPCR; type: cell-based; settings: for EC50: HEK293, HPV-16 origin replication in HEK 293 cells, 48 hr, qPCR, read-out: EC50; for Selectivity Index: HPV-16, HEK 293 cells
# Description: as §1
# MAD-1 strain of JC virus = assay: Antiviral effect in JC virus (MAD-1) infected COS7 cells, qPCR; settings: for EC50: JC polyomavirus, COS-7, 168 h; for Selectivity Index: JC virus (MAD-1), COS7 cells
# [11] = system: BK virus (Gardner strain); assay: Antiviral effect in HFF cells infected with BK virus (Gardner strain), qPCR; settings: for Selectivity Index: BK virus (Gardner strain), HFF cells; for EC50: Betapolyomavirus hominis, HFF, 336 h
# HIV-192US727 = assay: Anti-HIV assay in human PBMC, supernatant reverse transcriptase activity; settings: for Selectivity Index: HIV-192US727, human PBMC; for EC50: Human immunodeficiency virus 1, PBMC, 168 h
# [12] = African green monkey, uninfected COS7 cells
# in vitro = settings: human
# Caski (HPV-16) = assay: Antiproliferative activity, neutral red, Caski cervical cancer cells; settings: for CC50: Homo sapiens, Ca-Ski, 96 h, read-out: Cytotoxic concentration 50% (CC50) Caski (HPV-16)
# [13] = system: Copenhagen strain of vaccinia virus; assay: microbe, parasite or virus in culture; type: cell-based; settings: for EC50: Orthopoxvirus vaccinia, HFF, 168 h; for Selectivity Index: vaccinia virus (Copenhagen), HFF cells
# [14] = Antiproliferative activity, neutral red, normal human fibroblasts; settings: normal human fibroblasts (HFF), monolayer culture
# [15] = Toxicity in HEK 293 cells by trypan blue exclusion (HPV-11 example); type: cell-based; settings: human
# Description: as §1, with “HPV-11” for “HPV-16”
# HIV-1LAI = assay: HIV antiviral assay in MT-2 cells, p24 reduction; settings: for EC50: Human immunodeficiency virus 1, MT2, 96 h
# HPV-11 = HPV-11 origin replication in HEK 293 cells, qPCR; type: cell-based; settings: for EC50: HEK293, HPV-11 origin replication in HEK 293 cells, 48 hr, qPCR; for Selectivity Index: HPV-11, HEK 293 cells
# Description: as §1, with “HPV-11” for “HPV-16”
# Hela (HPV-18) = assay: Antiproliferative activity, neutral red, Hela cervical cancer cells; settings: Homo sapiens, 96 h, read-out: Cytotoxic concentration 50% (CC50) Hela (HPV-18)
# HPV-18 = assay: Antiviral effect in HPV-18 infected primary human keratinocyte rafts, qPCR; settings: for Selectivity Index: HPV-18 keratinocyte rafts; for EC50: Homo sapiens, Keratinocyte
# [16] = Cytotoxicity in 2.2.15 cells by neutral red uptake; settings: human
SMILES,CC50 at 14 days [1],CC50 at 72 h [2],EC50 (Hepatitis B virus),Selectivity Index (Hepatitis B virus),CC50 [3],CC50 at 3 days [4],CC50 at 3 days [6],EC50 [7],Selectivity Index [7],CC50 at 48 h [8],CC50 at 14 days [9],CC50 at 7 days [10],EC50 (HPV-16),Selectivity Index (HPV-16),EC50 (MAD-1 strain of JC virus),Selectivity Index (MAD-1 strain of JC virus),Selectivity Index [11],EC50 [11],Selectivity Index (HIV-192US727),EC50 (HIV-192US727),also measured
"CCCCCCCCCCCCCCCCCCOCCOP(=O)(CO[C@H](CO)Cn1ccc(N)nc1=O)OCc1ccccc1 (stereo partly drawn) [Compound 219, benzyl octadecyloxyethyl 1-(S)-[(3-hydroxy-2-phosphonomethoxy)propyl]cytosine]",84200 nM,18000 ± 3600 nM,450 nM,>223,> 10000 nM,13100 nM,19300 nM,< 30 nM,>2807,> 10000 nM,6540 nM,2870 nM,2230 nM,>4.48,> 4000 nM,<3.2,>218,< 30 nM,>28.7,< 100 nM,"body weight Day 6 ([5]; 20 mg/kg/day oral gavage daily for 5 days): 19.27 ± 1.32 (6); body weight Day 0 ([5]; 20 mg/kg/day oral gavage, before dosing): 19.03 ± 1.16 (6); CC50 at 7 days [12]: 12800 nM; CC50 (in vitro): > 100000 nM; CC50 (Caski (HPV-16)): 2000 nM; fold more effective in reducing viable cell number in the cervical cancer lines than in normal, non-transformed human fibroblasts (Caski (HPV-16); cervical cancer lines (Caski, Hela) vs HFF): 23.6 fold; EC50 [13]: 90 nM; Selectivity Index [13]: >1110; CC50 at 4 days [14]: 52000 nM; CC50 at 48 h [15]: > 10000 nM; Selectivity Index (HIV-1LAI; CC50/EC50, MT-2 cells): 6.7; EC50 (HIV-1LAI): 2700 ± 2100 nM; EC50 (HPV-11): 2040 nM; Selectivity Index (HPV-11): >4.9; CC50 (Hela (HPV-18)): 2200 nM; Selectivity Index (HPV-18): >9.4; EC50 (HPV-18): 1060 nM; CC50 at 7 days [16]: > 100000 nM"
"CCCCCCCCCCCCCCCCCCOCCOP(=O)(CO[C@H](CO)Cn1cnc2c(N)ncnc21)OCc1ccccc1 (stereo partly drawn) [Compound 218, benzyl octadecyloxyethyl 9-(S)-[3-hydroxy-2-(phosphonomethoxy)propyl] adenine]",7490 nM,2300 ± 1600 nM,760 nM,>132,> 10000 nM,6910 nM,14500 nM,< 30 nM,>250,> 10000 nM,2800 nM,230 nM,240 nM,>41.7,> 4000 nM,<2.6,>93,< 30 nM,>23.0,< 10 nM,CC50 at 7 days [12]: 10200 nM; CC50 (in vitro): > 100000 nM; CC50 (Caski (HPV-16)): 55 nM; EC50 [13]: < 30 nM; Selectivity Index [13]: >3330; CC50 at 4 days [14]: 5200 nM; CC50 at 48 h [15]: > 100000 nM; EC50 (HIV-1LAI): 130 ± 140 nM; EC50 (HPV-11): 770 nM; Selectivity Index (HPV-11): >370; CC50 (Hela (HPV-18)): 29 nM; Selectivity Index (HPV-18): >39; EC50 (HPV-18): 250 nM; CC50 at 7 days [16]: > 100000 nM
